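Cultured in 96-well plates, cells were exposed to test compound for 48 hours across five concentrations. GI50 marks 50% less growth. TGI is the concentration that stops growth completely.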
How the values were obtained:
Assay in all cases: NCI tumour cell line growth inhibition, 48 h
[1] = test system: XF 498 CNS
[2] = test system: DMS 273 small cell lung
[3] = test system: DMS 114 small cell lung
[4] = test system: LXFL 529 NSCLC
[5] = test system: DLD-1 colon
[6] = test system: RXF-631 renal
[7] = test system: SNB-78 CNS
[8] = test system: 786-0 renal
[9] = test system: MDA-MB-435
[10] = test system: BT-549 breast
[11] = test system: T-47D breast
[12] = test system: DU-145 prostate
[13] = test system: NCI/ADR-RES ovarian
[14] = test system: MDA-N
[15] = test system: PC-3 prostate

| Compound | TGI [1] | TGI [2] | TGI [3] | TGI [4] | TGI [5] | TGI [6] | TGI [7] | TGI [8] | TGI [9] | TGI [10] | TGI [11] | TGI [12] | TGI [13] | TGI [14] | TGI [15] | GI50 [9] | GI50 [11] | GI50 [12] | GI50 [13] | GI50 [15] |
| --- | --- | --- | --- | --- | --- | --- | --- | --- | --- | --- | --- | --- | --- | --- | --- | --- | --- | --- | --- | --- |
| CCC(C)C(=O)c1c(O)c(C/C=C(\C)CCC=C(C)C)c(O)c2c(C(O)CC)cc(=O)oc12 (stereo not drawn) | 4.53 µM | 8.29 µM | 3.35 µM | 2.99 µM | 11.3 µM | 14.2 µM | 16.7 µM |  |  |  |  |  |  |  |  |  |  |  |  |  |
| CCOC(=O)/C=C(\C)c1ccc(OC)cc1 | > 100 µM | > 100 µM | > 100 µM | > 100 µM | > 100 µM |  | > 100 µM |  |  |  |  |  |  |  |  |  |  |  |  |  |
| COc1ccc(NC(=O)/C(=C/c2ccc(N(CCC#N)CCC#N)cc2)NC(=O)c2cc([N+](=O)[O-])ccc2Cl)cc1 | > 100 µM | > 100 µM |  | > 100 µM | > 100 µM | > 100 µM | > 100 µM |  |  |  |  |  |  |  |  |  |  |  |  |  |
| CC(C)C[P+](c1ccccc1)(c1ccccc1)c1ccccc1 |  |  |  |  |  |  |  | > 100 µM | 25 µM | > 100 µM | > 100 µM | > 100 µM | > 100 µM |  |  |  |  |  |  |  |
| COc1ccc(NC(=O)/C(CC2=Nc3ccc([N+](=O)[O-])cc3NC2O)=N\NC(=O)C[N+](C)(C)C)c(OC)c1 (stereo not drawn) |  |  |  |  |  |  |  | 68.8 µM | > 100 µM | > 100 µM |  | > 100 µM | > 100 µM | > 100 µM | > 100 µM |  |  |  |  |  |
| CC1(C)N=C(N)N=C(N)N1c1cccc(OCCOc2ccc([N+](=O)[O-])cc2)c1 |  |  |  |  |  |  |  | > 100 µM | > 100 µM | > 100 µM |  | > 100 µM |  | > 100 µM | > 100 µM |  |  |  |  |  |
| N#Cc1c(NC(=S)NC(=O)c2ccccc2)nc2c(c1-c1ccccc1)CCCC2 |  |  |  |  |  |  |  |  | > 100 µM | 96.1 µM | > 100 µM | > 100 µM | > 100 µM | > 100 µM | > 100 µM |  |  |  |  |  |
| COc1cc(C2c3cc4c(cc3[C@@H](Nc3cccc(C(C)=O)c3)C3COC(=O)[C@H]23)OCO4)cc(OC)c1O (stereo partly drawn) | 14.9 µM | 1.81 µM | 4.77 µM |  | 4.93 µM |  | > 100 µM |  |  |  |  |  | > 100 µM |  |  |  |  |  |  |  |
| ClCc1c(Cl)c(Cl)c(Cl)c(CCl)c1Cl |  |  |  |  |  |  |  |  | 5.68 µM |  | 3.87 µM | 3.99 µM | 17.3 µM |  | 3.15 µM | 2.16 µM | 1.99 µM | 1.98 µM | 3.5 µM | 1.69 µM |
| NCc1ccc(C(=O)O)cc1 |  |  |  |  |  |  |  | > 100 µM | > 100 µM | > 100 µM | > 100 µM | > 100 µM | > 100 µM | > 100 µM | > 100 µM |  |  |  |  |  |
| CCO/N=[N+](\[O-])N(CC)CC | > 100 µM | > 100 µM |  | > 100 µM |  | > 100 µM | > 100 µM |  |  |  |  |  |  |  |  |  |  |  |  |  |
| COc1ccc(-c2cc(N3CCN(c4ccccc4)CC3)c(C#N)c(=O)o2)cc1 | 19.8 µM | > 100 µM | > 100 µM | > 100 µM | > 100 µM | > 100 µM | 59 µM |  |  |  |  |  |  |  |  |  |  |  |  |  |
| Cc1nc2ccccc2c(=O)[nH]1 | > 100 µM |  |  | > 100 µM | > 100 µM | > 100 µM | > 100 µM | > 100 µM |  |  |  |  |  |  |  |  |  |  |  |  |
| C#CC[C@@H]1C[C@]2(C)[C@H]3CC=C4[C@H]5CC(C)(C)CC[C@]5(C(=O)NCCCCN)CC[C@@]4(C)[C@]3(C)CC[C@H]2C(C)(C)[C@H]1OC(C)=O |  |  |  |  |  |  |  |  | 3.1 µM |  | 3.48 µM | 3.15 µM |  |  | 2.93 µM | 1.69 µM | 1.72 µM | 1.7 µM |  | 1.55 µM |
| Cn1c(-c2ccc(/C=N\N3CCN(/N=C/c4ccc(-c5c[n+]6ccccc6n5C)cc4)CC3)cc2)c[n+]2ccccc12 |  |  |  |  |  |  |  | 70.7 µM | > 100 µM | > 100 µM | > 100 µM | > 100 µM | > 100 µM | > 100 µM | > 100 µM |  |  |  |  |  |
| CC[n+]1c(/C=C/c2ccc(N(CCCl)CCCl)cc2)ccc2cc(NC(=O)/C=C/c3ccccc3)ccc21 |  |  | 13.8 µM |  |  |  | 16 µM | 3.22 µM | 1.07 µM | 1.58 µM | 1.5 µM | 1.64 µM | > 100 µM | 1.7 µM | 1.09 µM |  |  |  |  |  |
| COc1ccc(CC(C)N)cc1 (stereo not drawn) | > 100 µM | > 100 µM | > 100 µM | > 100 µM | > 100 µM | > 100 µM | > 100 µM | > 100 µM |  |  |  |  |  |  |  |  |  |  |  |  |
| Brc1ccccc1-c1ncc(-c2ccccc2)o1 |  |  |  |  |  |  |  |  | 60.4 µM | > 100 µM | > 100 µM | > 100 µM | > 100 µM | > 100 µM | > 100 µM |  |  |  |  |  |

Reference: PubChem BioAssay (NCI)
